What was measured:
[1] = tested on: quorum sensing signaling (Las system), QSC102 lacZ; test: Two-strain (PAO1 / QSC102) screening assay for quorum sensing inhibiting compounds; format: cell-based, Pseudomonas aeruginosa; settings: PAO1 + QSC102 on LB agar with X-gal, visual
Experimental: In this example, the screening assay used two strains of P. aeruginosa: a wild type P. aeruginosa (PAO1) and QSC102, from Example 1 (see FIG. 8). This assay will detect inhibition of all aspects of quorum sensing signaling, e.g., signal generation and signal reception.
(§1) Microtiter plates are prepared by adding 200 μL Luria Broth (“LB”) agar, containing 0.008% 5-bromo-4-chloro-3-indolyl-β-D-galactose (X-gal) to each well. Overnight cultures of PAO1 and QSC102 are subcultured in LB to a starting absorbance at 600 nm (“A600”) of 0.05 and grown at 37° C to an A600 of 1.0. PAO1 is diluted 2.5×10^5-fold in LB and 5 μL of this is applied to the surface of the LB agar in each well. Plates are then dried in a laminar flow hood for 60 minutes. A tenfold dilution of QSC102 in LB is used to inoculate each well using a replicator. Plates are then sealed and incubated at 37° C for 40 hours. Growth and color development are evaluated visually and the data is recorded with a camera.
(§2) The test compound was present in a microtiter well and overlaid with LB agar and 5-bromo-4-chloro-3-indolyl-β-D-galactose (X-gal). Both strains were spotted on the agar in each well. […] Inhibition of signaling was evaluated qualitatively by the absence or weakening of the blue color development.

[2] = tested on: P. aeruginosa PAO1 and QSC102; test: Bacterial growth in the PAO1 / QSC102 screening assay; format: cell-based, Pseudomonas aeruginosa; settings: in the presence of test compound
Experimental: as §1, §2

RhlI = target: T1, RhlI (Pseudomonas aeruginosa, UniProt P54291); settings: substrate of RhlI; cited from earlier work
T1 construct: host or cells: LasI minus strain of P. aeruginosa (as described for the cited study, Parsek et al. 1999)
T1 sequence (P54291 whole entry): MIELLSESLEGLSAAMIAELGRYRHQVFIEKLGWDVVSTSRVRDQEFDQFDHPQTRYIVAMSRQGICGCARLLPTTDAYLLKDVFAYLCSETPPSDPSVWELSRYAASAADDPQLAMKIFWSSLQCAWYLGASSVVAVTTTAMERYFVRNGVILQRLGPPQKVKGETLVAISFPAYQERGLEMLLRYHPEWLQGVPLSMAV

With O=C1CCCO1 [butyrolactone] the “Concentration required to suppress color development completely” value [1] was about 20 mM, the “Inhibition of signaling (blue color development)” value [1] was “showed an inhibitory effect” and the Bacterial growth [2] was “not inhibited”.

In the case of CCCC(=O)SCCNC(=O)CCNC(=O)[C@H](O)C(C)(C)COP(=O)(O)OP(=O)(O)OC[C@H]1O[C@@H](n2cnc3c(N)ncnc32)[C@H](O)[C@@H]1OP(=O)(O)O [butanoyl-CoA], the Km (RhlI) is given as 230 µM and the “vmax compared to C4-ACP” value (RhlI) is given as “one order of magnitude slower”.

With CC(=O)C1CCOC1=O (stereo not drawn) [acetyl-butyrolactone] the “Concentration required to suppress color development completely” value [1] was about 20 mM, the “Inhibition of signaling (blue color development)” value [1] was “showed an inhibitory effect” and the Bacterial growth [2] was “not inhibited”.

For butanoyl-acyl carrier protein [C4-ACP], the Km (RhlI) is listed as 6 µM.

From US6855513B1 (priority 1999, dated 2005)
